Test [1] concerns the target T1, Ribonuclease pancreatic (Bos taurus, UniProt P61823).
T1 sequence (P61823 whole entry): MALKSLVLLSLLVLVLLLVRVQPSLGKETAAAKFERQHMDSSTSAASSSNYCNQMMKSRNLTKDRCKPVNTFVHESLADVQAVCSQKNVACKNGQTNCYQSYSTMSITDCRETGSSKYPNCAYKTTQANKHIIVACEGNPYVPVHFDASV
Kind of test: Inhibition of bovine pancreatic RNase A using 2',3'-cCMP as substrate by Lineweaver-Burk plot analysis.

In test [2] the target is T2, Ribonuclease pancreatic (Bos taurus) (UniProt P61823).
T2 sequence (whole entry): T1 sequence (P61823 whole entry)
Kind of test: Inhibition of bovine pancreatic RNase A assessed as increase in RNA band intensity using RNA as substrate incubated for 3 hrs followed by RNA addition for 30 mins by ethidium bromide staining based agarose gel electrophoresis. As to conditions: time 210.0 min.

Test [3] deals with T1, Ribonuclease pancreatic. Briefly: Competitive inhibition of bovine pancreatic RNase A using 2',3'-cCMP as substrate by Lineweaver-Burk plot analysis.
Test [4] has as its target T1, Ribonuclease pancreatic. Briefly: Non-competitive inhibition of bovine pancreatic RNase A using 2',3'-cCMP as substrate by Lineweaver-Burk plot analysis.
Test [5] concerns the target T1, Ribonuclease pancreatic. Kind of test: Inhibition of bovine pancreatic RNase A assessed as reduction in CpG cleavage by spectrophotometric analysis.

The structures appear in SMILES notation. Activity calls are given as the source filed them. The rule behind the calls is not given here.

By Ki is commonly meant the equilibrium dissociation constant of an inhibitor or competing ligand from its target. As for `Cc1cn([C@H]2C[C@H](NC(=O)[C@@H](CC(=O)O)NC(=O)[C@H]3O[C@@H](n4cnc5c(N)ncnc54)[C@H](O)[C@@H]3O)[C@@H](CO)O2)c(=O)[nH]c1=O`, the Ki on Ribonuclease pancreatic [1] is 32 µM.
Take `O=C(O)c1cc(C(=O)N2CCC(C(=O)O)CC2)cc(C(=O)N2CCC(C(=O)O)CC2)c1`: in test [2], the inhibition entry was “Active”. The Ki at Ribonuclease pancreatic [3] was 272 µM.
For `O=C(O)c1cc(-n2cc(CS(=O)(=O)O)nn2)cc(-n2cc(CS(=O)(=O)O)nn2)c1`, in that order: “Active” and 12 µM.
With `O=C(O)C1CCN(C(=O)c2cccc(C(=O)N3CCC(C(=O)O)CC3)c2)CC1`, the inhibition result in test [2] was “Active”. The same compound yielded a Ki on Ribonuclease pancreatic [4] of 617 µM.
Compound `O=S(=O)(O)CCn1cc(COC[C@@H]2O[C@H](Cn3cc(CS(=O)(=O)O)nn3)[C@@H](O)[C@H]2O)nn1` returned a Ki at Ribonuclease pancreatic [1] of 29 µM.
Consider `O=C(Nc1ccc(Cc2ccc(NC(=O)c3cccc([N+](=O)[O-])c3)c(C(=O)O)c2)cc1C(=O)O)c1cccc([N+](=O)[O-])c1`, for which, on Ribonuclease pancreatic [5], the Ki came out at 21 µM.
Regarding `O=C(O)c1cc(-n2cc(CO)nn2)cc(-n2cc(CO)nn2)c1`, the inhibition entry in test [2] is “Active”. In addition, the Ki at Ribonuclease pancreatic [3] worked out at 44 µM.
In turn, `Cc1cn([C@H]2C[C@H](NC(=O)[C@@H](CC(=O)O)NC(=O)[C@H]3O[C@@H](n4ccc(=O)[nH]c4=O)[C@H](O)[C@@H]3O)[C@@H](CO)O2)c(=O)[nH]c1=O` displayed a Ki on Ribonuclease pancreatic [1] of 66.7 µM.
Regarding `OCc1cn(-c2cccc(-n3cc(CO)nn3)c2)nn1`, in test [2], the inhibition result was “Active”. At Ribonuclease pancreatic [3], this compound yielded a Ki of 79 µM.
For `O=C(O)c1cn(-c2cccc(-n3cc(C(=O)O)nn3)c2)nn1`, in that order: “Active” and 60 µM.
For `O=C(O)c1cc(-n2cc(C(=O)O)nn2)cc(-n2cc(C(=O)O)nn2)c1`, in that order: “Active” and 28 µM.
For `O=S(=O)(O)Cc1cn(-c2cccc(-n3cc(CS(=O)(=O)O)nn3)c2)nn1`, in that order: “Active” and 32 µM.

(Values after ChEMBL document CHEMBL5108013, “Crescent-shaped meta-substituted benzene derivatives as a new class of non-nucleoside ribonuclease A inhibitors” (Bioorg Med Chem, 2022).)
